Experimental data: patent publication US10597388B2, “Pyridazinone herbicides” (FMC CORPORATION, priority 2014, dated 2020)

How the values were obtained:
Assay type in all cases: in vivo
[1] = tested on: morningglory (Ipomoea coccinea); assay: Test C greenhouse herbicide test, pre- and postemergence
Source text: (§1) Seeds of plant species selected from blackgrass (Alopecurus myosuroides), ryegrass, Italian (Italian ryegrass, Lolium multiflorum), wheat (winter wheat, Triticum aestivum), galium (catchweed bedstraw, Galium aparine), corn (Zea mays), large crabgrass, large (large crabgrass, Digitaria sanguinalis), foxtail, giant (giant foxtail, Setaria faberii), johnsongrass (Sorghum halepense), lambsquarters (Chenopodium album), morningglory (Ipomoea coccinea), nutsedge, yellow (yellow nutsedge, Cyperus esculentus), pigweed (Amaranthus retroflexus), ragweed (common ragweed, Ambrosia elatior), soybean (Glycine max), barnyardgrass (Echinochloa crus-galli), oilseed rape (Brassica napus), waterhemp (common waterhemp, Amaranthus rudis), and velvetleaf (Abutilon theophrasti) were planted into a blend of loam soil and sand and treated preemergence with test chemicals formulated in a non-phytotoxic solvent mixture which included a surfactant.
(§2) At the same time, plants selected from these crop and weed species and also chickweed (common chickweed, Stellaria media), kochia (Kochia scoparia), and oat, wild (wild oat, Avena fatua), were planted in pots containing Redi-Earth® planting medium (Scotts Company, 14111 Scottslawn Road, Marysville, Ohio 43041) comprising spaghnum peat moss, vermiculite, wetting agent and starter nutrients and treated with postemergence applications of test chemicals formulated in the same manner. Plants ranged in height from 2 to 18 cm (1- to 4-leaf stage) for postemergence treatments. Treated plants and controls were maintained in a greenhouse for 13 to 15 d, after which time all species were compared to controls and visually evaluated. Plant response ratings, summarized in Table C, are based on a scale of 0 to 100 where 0 is no effect and 100 is complete control. A dash (-) response means no test result.

[2] = tested on: foxtail, giant (giant foxtail, Setaria faberii); assay: as above
Source text: as §1, §2

[3] = tested on: johnsongrass (Sorghum halepense); assay: as above
Source text: as §1, §2

[4] = tested on: blackgrass (Alopecurus myosuroides); assay: as above
Source text: as §1, §2

soybean (Glycine max) = assay: as above
Source text: as §1, §2

[5] = tested on: lambsquarters (Chenopodium album); assay: as above
Source text: as §1, §2

[6] = tested on: waterhemp (common waterhemp, Amaranthus rudis); assay: as above
Source text: as §1, §2

[7] = tested on: velvetleaf (Abutilon theophrasti); assay: as above
Source text: as §1, §2

[8] = tested on: oilseed rape (Brassica napus); assay: as above
Source text: as §1, §2

[9] = tested on: ryegrass, Italian (Italian ryegrass, Lolium multiflorum); assay: as above
Source text: as §1, §2

[10] = tested on: pigweed (Amaranthus retroflexus); assay: as above
Source text: as §1, §2

corn (Zea mays) = assay: as above
Source text: as §1, §2

[11] = tested on: ragweed (common ragweed, Ambrosia elatior); assay: as above
Source text: as §1, §2

[12] = tested on: crabgrass, large (large crabgrass, Digitaria sanguinalis); assay: as above
Source text: as §1, §2

kochia (Kochia scoparia) = assay: Test C greenhouse herbicide test, postemergence
In short: (§3)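 Test chemicals were applied postemergence to greenhouse plants at the 1- to 4-leaf stage (2–18 cm tall) growing in peat/vermiculite medium. After 13–15 d, injury was rated visually against untreated controls on a 0–100 scale (0 = no effect, 100 = complete control).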

[13] = tested on: oat, wild (wild oat, Avena fatua); assay: Test C greenhouse herbicide test, postemergence
In short: as §3

[14] = Postemergence, 31 g ai/ha, 0 to 100 scale (0 no effect, 100 complete control)
[15] = Postemergence, 125 g ai/ha, scale 0 to 100, 0 is no effect, 100 is complete control
[16] = Postemergence, 250 g ai/ha, scale 0 to 100, 0 no effect, 100 complete control, 13 to 15 d
[17] = Preemergence, 31 g ai/ha, scale 0 to 100, 0 is no effect, 100 is complete control
[18] = Preemergence, 62 g ai/ha, scale 0 to 100, 0 is no effect, 100 is complete control
[19] = Preemergence, 125 g ai/ha, scale 0 to 100, 0 is no effect, 100 is complete control
[20] = Preemergence, 250 g ai/ha, scale 0 to 100 (0 no effect, 100 complete control)
[21] = postemergence, 62 g ai/ha, scale 0 to 100, 0 no effect, 100 complete control

**Q.** What does the source list for `CCC(=O)Oc1c(C)nn(C)c(=O)c1-c1c(C)sc2ccc(C)cc12` [Compound 42]?
**A.** Morningglory plant response rating [1, 14]: 75; Plant response rating, Morningglory [1, 15]: 100; Plant response rating, Morningglory [1, 16]: 100; Plant response rating, Morningglory [1, 17]: 85; Plant response rating, Morningglory [1, 18]: 98; Plant response rating, Morningglory [1, 19]: 98; Morningglory plant response rating [1, 20]: 98; Morningglory plant response rating [1, 21]: 100; Foxtail, Giant plant response rating [2, 14]: 25; Plant response rating, Foxtail, Giant [2, 15]: 35; Plant response rating, Foxtail, Giant [2, 16]: 80; Plant response rating, Foxtail, Giant [2, 17]: 75; Plant response rating, Foxtail, Giant [2, 18]: 80; Plant response rating, Foxtail, Giant [2, 19]: 90; Foxtail, Giant plant response rating [2, 20]: 100; Foxtail, Giant plant response rating [2, 21]: 30; Johnsongrass plant response rating [3, 14]: 5; Plant response rating, Johnsongrass [3, 16]: 25; Plant response rating, Johnsongrass [3, 17]: 0; Plant response rating, Johnsongrass [3, 18]: 0; Plant response rating, Johnsongrass [3, 19]: 5; Johnsongrass plant response rating [3, 20]: 30; Johnsongrass plant response rating [3, 21]: 5; Blackgrass plant response rating [4, 14]: 30; Plant response rating, Blackgrass [4, 15]: 60; Plant response rating, Blackgrass [4, 16]: 70; Plant response rating, Blackgrass [4, 17]: 40; Plant response rating, Blackgrass [4, 18]: 85; Plant response rating, Blackgrass [4, 19]: 90; Blackgrass plant response rating [4, 20]: 90; Blackgrass plant response rating [4, 21]: 35; Soybean plant response rating (soybean (Glycine max); [14]): 0; Plant response rating, Soybean (soybean (Glycine max); [15]): 10; Plant response rating, Soybean (soybean (Glycine max); [16]): 15; Plant response rating, Soybean (soybean (Glycine max); [17]): 35; Plant response rating, Soybean (soybean (Glycine max); [18]): 0; Plant response rating, Soybean (soybean (Glycine max); [19]): 0; Soybean plant response rating (soybean (Glycine max); [20]): 5; Soybean plant response rating (soybean (Glycine max); [21]): 5; Lambsquarters plant response rating [5, 14]: 85; Plant response rating, Lambsquarters [5, 15]: 100; Plant response rating, Lambsquarters [5, 16]: 98; Plant response rating, Lambsquarters [5, 17]: 85; Plant response rating, Lambsquarters [5, 18]: 80; Plant response rating, Lambsquarters [5, 19]: 85; Lambsquarters plant response rating [5, 20]: 90; Lambsquarters plant response rating [5, 21]: 95; Waterhemp plant response rating [6, 14]: 75; Plant response rating, Waterhemp [6, 15]: 98; Plant response rating, Waterhemp [6, 16]: 95; Plant response rating, Waterhemp [6, 17]: 80; Plant response rating, Waterhemp [6, 18]: 98; Plant response rating, Waterhemp [6, 19]: 100; Waterhemp plant response rating [6, 20]: 100; Waterhemp plant response rating [6, 21]: 85; Velvetleaf plant response rating [7, 14]: 45; Plant response rating, Velvetleaf [7, 15]: 85; Plant response rating, Velvetleaf [7, 16]: 95; Plant response rating, Velvetleaf [7, 17]: 85; Plant response rating, Velvetleaf [7, 18]: 90; Plant response rating, Velvetleaf [7, 19]: 90; Velvetleaf plant response rating [7, 20]: 98; Velvetleaf plant response rating [7, 21]: 85; Oilseed Rape plant response rating [8, 14]: 0; Plant response rating, Oilseed Rape [8, 15]: 10; Plant response rating, Oilseed Rape [8, 16]: 0; Plant response rating, Oilseed Rape [8, 17]: 0; Plant response rating, Oilseed Rape [8, 18]: 0; Plant response rating, Oilseed Rape [8, 19]: 5; Oilseed Rape plant response rating [8, 20]: 20; Oilseed Rape plant response rating [8, 21]: 5; Ryegrass, Italian plant response rating [9, 14]: 65; Plant response rating, Ryegrass, Italian [9, 15]: 90; Plant response rating, Ryegrass, Italian [9, 16]: 95; Plant response rating, Ryegrass, Italian [9, 17]: 85; Plant response rating, Ryegrass, Italian [9, 18]: 90; Plant response rating, Ryegrass, Italian [9, 19]: 90; Ryegrass, Italian plant response rating [9, 20]: 90; Ryegrass, Italian plant response rating [9, 21]: 90; Pigweed plant response rating [10, 14]: 85; Plant response rating, Pigweed [10, 15]: 98; Plant response rating, Pigweed [10, 16]: 98; Plant response rating, Pigweed [10, 17]: 100; Plant response rating, Pigweed [10, 18]: 100; Plant response rating, Pigweed [10, 19]: 100; Pigweed plant response rating [10, 20]: 100; Pigweed plant response rating [10, 21]: 95; Corn plant response rating (corn (Zea mays); [14]): 0; Plant response rating, Corn (corn (Zea mays); [15]): 5; Plant response rating, Corn (corn (Zea mays); [16]): 5; Plant response rating, Corn (corn (Zea mays); [17]): 0; Plant response rating, Corn (corn (Zea mays); [18]): 0; Plant response rating, Corn (corn (Zea mays); [19]): 10; Corn plant response rating (corn (Zea mays); [20]): 35; Corn plant response rating (corn (Zea mays); [21]): 5; Ragweed plant response rating [11, 14]: 90; Plant response rating, Ragweed [11, 15]: 98; Plant response rating, Ragweed [11, 16]: 100; Plant response rating, Ragweed [11, 17]: 90; Plant response rating, Ragweed [11, 18]: 90; Plant response rating, Ragweed [11, 19]: 95; Ragweed plant response rating [11, 20]: 100; Ragweed plant response rating [11, 21]: 85; Crabgrass, Large plant response rating [12, 14]: 10; Plant response rating, Crabgrass, Large [12, 15]: 20; Plant response rating, Crabgrass, Large [12, 16]: 20; Plant response rating, Crabgrass, Large [12, 17]: 55; Plant response rating, Crabgrass, Large [12, 18]: 70; Plant response rating, Crabgrass, Large [12, 19]: 80; Crabgrass, Large plant response rating [12, 20]: 85; Crabgrass, Large plant response rating [12, 21]: 15; Kochia plant response rating (kochia (Kochia scoparia); [14]): 90; Plant response rating, Kochia (kochia (Kochia scoparia); [15]): 100; Plant response rating, Kochia (kochia (Kochia scoparia); [16]): 100; Kochia plant response rating (kochia (Kochia scoparia); [21]): 100; Oat, Wild plant response rating [13, 14]: 75; Plant response rating, Oat, Wild [13, 15]: 90; Plant response rating, Oat, Wild [13, 16]: 95; Oat, Wild plant response rating [13, 21]: 90

**Q.** Which results are given for `Cc1cc(C)c2ccccc2c1-c1c(O)cnn(C)c1=O` [Compound 51]?
**A.** Morningglory plant response rating [1, 14]: 5; Plant response rating, Morningglory [1, 15]: 75; Plant response rating, Morningglory [1, 16]: 75; Morningglory plant response rating [1, 21]: 55; Foxtail, Giant plant response rating [2, 14]: 5; Plant response rating, Foxtail, Giant [2, 15]: 15; Plant response rating, Foxtail, Giant [2, 16]: 35; Foxtail, Giant plant response rating [2, 21]: 5; Johnsongrass plant response rating [3, 14]: 0; Plant response rating, Johnsongrass [3, 15]: 0; Plant response rating, Johnsongrass [3, 16]: 0; Johnsongrass plant response rating [3, 21]: 0; Blackgrass plant response rating [4, 14]: 0; Plant response rating, Blackgrass [4, 15]: 0; Plant response rating, Blackgrass [4, 16]: 10; Blackgrass plant response rating [4, 21]: 0; Soybean plant response rating (soybean (Glycine max); [14]): 0; Plant response rating, Soybean (soybean (Glycine max); [15]): 0; Plant response rating, Soybean (soybean (Glycine max); [16]): 0; Soybean plant response rating (soybean (Glycine max); [21]): 0; Lambsquarters plant response rating [5, 14]: 5; Plant response rating, Lambsquarters [5, 15]: 65; Lambsquarters plant response rating [5, 21]: 50; Waterhemp plant response rating [6, 14]: 30; Plant response rating, Waterhemp [6, 15]: 80; Waterhemp plant response rating [6, 21]: 50; Velvetleaf plant response rating [7, 14]: 5; Plant response rating, Velvetleaf [7, 15]: 50; Plant response rating, Velvetleaf [7, 16]: 70; Velvetleaf plant response rating [7, 21]: 20; Oilseed Rape plant response rating [8, 14]: 0; Plant response rating, Oilseed Rape [8, 15]: 5; Plant response rating, Oilseed Rape [8, 16]: 5; Oilseed Rape plant response rating [8, 21]: 5; Ryegrass, Italian plant response rating [9, 14]: 35; Plant response rating, Ryegrass, Italian [9, 15]: 60; Plant response rating, Ryegrass, Italian [9, 16]: 70; Ryegrass, Italian plant response rating [9, 21]: 50; Pigweed plant response rating [10, 14]: 60; Plant response rating, Pigweed [10, 15]: 70; Plant response rating, Pigweed [10, 16]: 85; Pigweed plant response rating [10, 21]: 65; Corn plant response rating (corn (Zea mays); [14]): 0; Plant response rating, Corn (corn (Zea mays); [15]): 0; Plant response rating, Corn (corn (Zea mays); [16]): 0; Corn plant response rating (corn (Zea mays); [21]): 0; Ragweed plant response rating [11, 14]: 10; Plant response rating, Ragweed [11, 15]: 5; Plant response rating, Ragweed [11, 16]: 25; Ragweed plant response rating [11, 21]: 5; Crabgrass, Large plant response rating [12, 14]: 0; Plant response rating, Crabgrass, Large [12, 15]: 10; Plant response rating, Crabgrass, Large [12, 16]: 10; Crabgrass, Large plant response rating [12, 21]: 5; Kochia plant response rating (kochia (Kochia scoparia); [14]): 0; Plant response rating, Kochia (kochia (Kochia scoparia); [15]): 50; Plant response rating, Kochia (kochia (Kochia scoparia); [16]): 75; Kochia plant response rating (kochia (Kochia scoparia); [21]): 15; Oat, Wild plant response rating [13, 14]: 0; Plant response rating, Oat, Wild [13, 15]: 5; Plant response rating, Oat, Wild [13, 16]: 10; Oat, Wild plant response rating [13, 21]: 5
